The values below come from ChEMBL document CHEMBL1201862, “PubChem BioAssay data set” (2004).

Structures are written as SMILES.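 Five concentrations, 48 hours, 96-well plates. GI50 = concentration required for 50% inhibition of growth.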 The source made the active and inactive calls. Rule as the data show it: active = GI50 up to about 1.1 µM and inactive = higher.

Test systems include OVCAR-8; SR; SK-OV-3; HOP-92; ACHN; SW-620; NCI-H23; U-251; A498; CCRF-CEM; CAKI-1; NCI-H226; DMS-273; SF-268; SK-MEL-5; KM12; RXF 393.
Common to all, as to test: NCI anticancer screen, dose series, 48 h

For `Cc1cccc(N2C(=O)C(=O)C(c3nc4ccccc4s3)C(=O)C2=O)c1C`, the GI50 in the experiment on OVCAR-8, in the experiment with SR, in the experiment on SK-OV-3, in the experiment on HOP-92, with ACHN and in the experiment with SW-620 was > 100 µM (inactive) each time. Further, the GI50 was > 100 µM (inactive) in the experiment on NCI-H23; > 100 µM (inactive) with U-251; > 100 µM (inactive) in the experiment on A498; 35.7 µM (inactive) in the experiment on CCRF-CEM; > 100 µM (inactive) in the experiment with CAKI-1; > 100 µM (inactive) in the experiment with NCI-H226. Further, the GI50 in the experiment on DMS-273, with SF-268 and with SK-MEL-5 was > 100 µM (inactive) in each case.
For the compound `CC(=O)/C(=N\O)C(=O)Nc1ccc(Cl)cc1Cl`, the GI50 in the experiment with OVCAR-8, in the experiment on SK-OV-3, in the experiment on HOP-92, with ACHN, in the experiment with SW-620 and in the experiment on KM12 was > 100 µM (inactive) each time. The GI50 was > 100 µM (inactive) with NCI-H23; > 100 µM (inactive) with U-251; > 100 µM (inactive) with A498; 19.1 µM (inactive) with CCRF-CEM; > 100 µM (inactive) with CAKI-1; > 100 µM (inactive) in the experiment on NCI-H226. The GI50 with DMS-273, in the experiment with SF-268, in the experiment with SK-MEL-5 and with RXF 393 was > 100 µM (inactive) in each case.
Turning to `CC1(C)CC(c2c[nH]c3ccccc23)=CC2=Nc3ccccc3C21O` (centres undefined), the GI50 in the experiment with OVCAR-8 is 27 µM (inactive); in the experiment on SK-OV-3, > 100 µM (inactive); with HOP-92, 15 µM (inactive); in the experiment with ACHN, > 100 µM (inactive); in the experiment on SW-620, 52.1 µM (inactive); with KM12, > 100 µM (inactive). In addition, the GI50 in the experiment on NCI-H23 was 34 µM (inactive); in the experiment with U-251, 33.2 µM (inactive); in the experiment on A498, > 100 µM (inactive); with CCRF-CEM, > 100 µM (inactive); in the experiment on CAKI-1 it was 48.8 µM (inactive); with NCI-H226, 15.2 µM (inactive). Further, the GI50 in the experiment with DMS-273 was > 100 µM (inactive); in the experiment with SF-268, > 100 µM (inactive); with SK-MEL-5 it was 36.4 µM (inactive); in the experiment with RXF 393, 37.8 µM (inactive).
For `Cc1c(C(=O)C/C(=N/NC(=O)c2ccccc2O)C(=O)Nc2ccccc2C(C)C)[n+]([O-])c2ccccc2[n+]1[O-]`, the GI50 with OVCAR-8 is 29.6 µM (inactive); in the experiment with SK-OV-3 it was > 100 µM (inactive); with ACHN, 36.6 µM (inactive); in the experiment with SW-620, 35.4 µM (inactive); in the experiment on KM12 it was 53.6 µM (inactive); in the experiment with NCI-H23, 19.4 µM (inactive). For the same compound, the GI50 is 45 µM (inactive) with U-251; > 100 µM (inactive) in the experiment on A498; 1.47 µM (inactive) with CCRF-CEM; 30.8 µM (inactive) in the experiment on CAKI-1; > 100 µM (inactive) in the experiment on NCI-H226; 31.8 µM (inactive) with DMS-273. The GI50 was 33.9 µM (inactive) in the experiment with SF-268, 43 µM (inactive) in the experiment with SK-MEL-5 and 75.3 µM (inactive) in the experiment on RXF 393.
For `COc1cc([C@@H]2c3cc4c(cc3[C@@H](NC(=O)c3ccc(OC(C)=O)cc3)C3COC(=O)[C@@H]32)OCO4)cc(OC)c1O` (some centres undefined), the GI50 is 2.48 µM (inactive) with OVCAR-8; 2.47 µM (inactive) in the experiment with SK-OV-3; 1.34 µM (inactive) with HOP-92; 0.689 µM (active) in the experiment with ACHN; 0.729 µM (active) in the experiment with SW-620; 2.66 µM (inactive) in the experiment on KM12. The GI50 in the experiment with NCI-H23 was 0.9 µM (active); in the experiment with U-251 it was 0.308 µM (active); with A498, 2.22 µM (inactive); in the experiment with CCRF-CEM, 0.213 µM (active); with CAKI-1 it was 1.92 µM (inactive); with NCI-H226, 0.798 µM (active). Moreover, the GI50 in the experiment with DMS-273 was 0.359 µM (active); in the experiment on SF-268, 2.01 µM (inactive); in the experiment on SK-MEL-5, 1.99 µM (inactive); in the experiment on RXF 393 it was 11.4 µM (inactive).
As for `C[C@H](NS(=O)(=O)c1ccc(NC(=O)c2ccccc2)cc1)C(=O)O`, the GI50 in the experiment with OVCAR-8, in the experiment with SK-OV-3, in the experiment with HOP-92, in the experiment with ACHN, in the experiment with SW-620 and in the experiment with KM12 was > 100 µM (inactive) throughout. The GI50 with NCI-H23, in the experiment with U-251, in the experiment on A498, in the experiment on CCRF-CEM, with CAKI-1 and with DMS-273 was > 100 µM (inactive) each time. Further, the GI50 in the experiment on SF-268, in the experiment with SK-MEL-5 and with RXF 393 was > 100 µM (inactive) each time.
For `Cc1c2ccnc(O)c2cc2c(=O)c3cnccc3[nH]c12`, the GI50 in the experiment on OVCAR-8, with SK-OV-3, in the experiment with HOP-92, in the experiment with ACHN, in the experiment with SW-620 and with KM12 was > 100 µM (inactive) throughout. The GI50 with NCI-H23, in the experiment on U-251, with A498, in the experiment with CCRF-CEM, with CAKI-1 and in the experiment with NCI-H226 was > 100 µM (inactive) throughout. The GI50 in the experiment with DMS-273, with SF-268, in the experiment with SK-MEL-5 and in the experiment on RXF 393 was > 100 µM (inactive) each time.
With `Cc1c(/C=C2\CC/C(=C\c3[nH]c(C(=O)OC(C)(C)C)c(C)c3C)C2=O)[nH]c(C(=O)OC(C)(C)C)c1C`, the GI50 in the experiment with OVCAR-8, in the experiment on SR, in the experiment on SK-OV-3, with HOP-92, in the experiment on SW-620 and in the experiment on KM12 was > 100 µM (inactive) each time. The GI50 in the experiment on NCI-H23, with U-251, with A498, in the experiment with CCRF-CEM, in the experiment with CAKI-1 and in the experiment with NCI-H226 was > 100 µM (inactive) in each case. Further, the GI50 in the experiment on DMS-273, in the experiment on SF-268, in the experiment with SK-MEL-5 and in the experiment on RXF 393 was > 100 µM (inactive) each time.
`COc1cc(CO)cc2c1[nH]c1ccccc12` [KOENOLINE]: the GI50 with OVCAR-8, in the experiment with SR, in the experiment with SK-OV-3, in the experiment with HOP-92, in the experiment with ACHN and in the experiment on SW-620 was > 25 µM (inactive) each time. Further, the GI50 in the experiment with KM12 is > 25 µM (inactive); with U-251, > 25 µM (inactive); with CCRF-CEM, > 25 µM (inactive); with NCI-H226 it was 1.73 µM (inactive); in the experiment on DMS-273 it was > 25 µM (inactive); in the experiment with SF-268 it was > 25 µM (inactive). Also, the GI50 in the experiment on SK-MEL-5 and in the experiment on RXF 393 was > 25 µM (inactive) throughout.
